This passage reports IC50 results from patent US20240246969A1, “HETEROCYCLIC DERIVATIVES AS CAMKK2 INHIBITORS” (Bristol-Myers Squibb Company, priority 2021, published 2024).

Experiment [1] concerns A549 lung carcinoma cells. In words: Cell proliferation assay (CellTiter 96 Aqueous). The following applies: Homo sapiens, compounds 48 hours, read-out: Cellular IC50 Proliferation. In kind it is cell-based. The procedure: Proliferation was measured using CellTiter 96 Aqueous Non-Radioactive Cell Proliferation Assay Kit (Promega), which determines the number of viable cells in culture based on quantitation of dehydrogenase enzymes, as an indicator of metabolically active cells. A549 lung carcinoma cells were seeded at 2,000 cells/well in a 96-well tissue culture treated plate in DMEM+10% FBS+1× pen/step+1×NEAA and incubated at 37° C. overnight in a CO2 incubator. Cells were treated with compounds for 48 hours. Then viability was measured using CellTiter 96 Aqueous Non-Radioactive Cell Proliferation Assay Kit (Promega). Detection was performed using Biotek Cytation 5 Cell Imaging Multi Mode plate reader.

Experiment [2] has as its system phosphorylation of CaMKK2 substrate AMPK at Thr172 in A549 lung carcinoma cells. In words: Cell-based phosphorylation assay (Phospho-AMPK Thr172 HTRF). The following applies: Homo sapiens; A549 cells, compounds 4 hours, 3 uM Calcium Ionophore 30 minutes; read-out: Cellular IC50 Phosphorylation. The procedure:
Cellular CaMKK2 inhibition by compounds was measured by monitoring the phosphorylation of CaMKK2 substrate AMPK at Thr172 in A549 lung carcinoma cells (ATCC) using CISBIO Phospho-AMPK (Thr172) HTRF kit. A549 cells were plated in 96 well plates at 8000 cells/well in DMEM+10% FBS+1× pen/step+1×NEAA and incubated at 37° C. overnight in a CO2 incubator. Cells were then treated with compounds for 4 hours. After cells were stimulated by 3 uM Calcium Ionophore (Sigma) at 37° C. for 30 minutes, cells were washed and then lysed with cell lysis buffer (CisBio) for 30 minutes. […] Plates were incubated overnight and then read using HTRF mode by BMG PHERAstarFS.

Another experiment deals with CaMKK2 (Homo sapiens, UniProt Q96RR4). Briefly: CaMKK2 binding assay (LanthaScreen TR-FRET). The procedure:
The ability of test compounds to bind and inhibit the activity of CaMKK2 were determined using a binding assay using LanthaScreent (Thermofisher) detection reagents in a 384-well plate format using the following assay buffer: 50 mM HEPES (pH7.5), 10 mM MgCl2, 1 mM EGTA, and 0.01% Brij-35.
A 10-point serial dilution of inhibitor compound in 0.5% DMSO was added to each well of the plate. The final assay volume in well was 15 uL. […] A ratio was calculated from the 2 readouts and fitted to a 4-parameter fit to determine the binding IC50.
In general terms: Time-resolved FRET reads energy transfer from a long-lived donor to a nearby acceptor.

Sequence of CaMKK2 (Q96RR4 whole entry): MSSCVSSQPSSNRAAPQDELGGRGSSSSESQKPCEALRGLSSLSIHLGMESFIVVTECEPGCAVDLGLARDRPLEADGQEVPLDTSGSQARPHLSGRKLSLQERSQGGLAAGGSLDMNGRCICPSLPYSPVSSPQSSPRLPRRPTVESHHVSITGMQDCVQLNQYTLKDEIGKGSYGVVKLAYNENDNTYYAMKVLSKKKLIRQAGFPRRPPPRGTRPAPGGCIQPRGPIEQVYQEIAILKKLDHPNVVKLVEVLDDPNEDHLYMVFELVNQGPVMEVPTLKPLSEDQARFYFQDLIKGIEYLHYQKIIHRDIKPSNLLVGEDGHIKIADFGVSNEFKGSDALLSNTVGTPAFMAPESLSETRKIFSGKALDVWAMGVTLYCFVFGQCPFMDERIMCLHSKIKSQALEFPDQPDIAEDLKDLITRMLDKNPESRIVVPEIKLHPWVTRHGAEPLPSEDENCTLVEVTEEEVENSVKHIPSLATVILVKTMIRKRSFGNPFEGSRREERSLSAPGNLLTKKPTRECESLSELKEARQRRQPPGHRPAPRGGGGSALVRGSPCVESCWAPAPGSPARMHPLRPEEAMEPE

Regarding `Cc1cc(Cl)cc(-n2cc3ncc(F)c(-c4ccc(C(=O)O)c(C5CCCC5)c4)c3n2)c1` [Example 3.7, 4-(2-(3-Chloro-5-methylphenyl)-6-fluoro-2H-pyrazolo[4,3-b]pyridin-7-yl)-2-cyclopentylbenzoic Acid], the IC50 was more than 10 µM in experiment [1], less than 0.1 µM in experiment [2] and less than 0.1 µM at CaMKK2.

For the compound `c1cc(-c2nn[nH]n2)c(C2CCCC2)cc1-n1ccc2ncc(C3CC3)nc21` [Example 20, 5-(3-cyclopentyl-4-(2H-tetrazol-5-yl)phenyl)-3-cyclopropyl-5H-pyrrolo[2,3-b]pyrazine], the IC50 in experiment [1] is more than 10 µM; in experiment [2] it was more than 10 µM; at CaMKK2 it was less than 0.1 µM.

For the compound `O=C(O)c1ccc(-c2ccnc3cc(-c4ccccc4F)nn23)cc1C1CCCC1` [Example 2.6, 2-Cyclopentyl-4-(2-(2-fluorophenyl)pyrazolo[1,5-a]pyrimidin-7-yl)benzoic Acid], the IC50 in experiment [1] is more than 10 µM; in experiment [2] it was 0.1 to 1 µM; on CaMKK2, less than 0.1 µM.

For `Cc1cc(OC(F)(F)F)cc(-n2cc3ncc(F)c(-c4ccc(C(=O)O)c(C5CCCC5)c4)c3n2)c1` [Example 3.18, 2-Cyclopentyl-4-(6-fluoro-2-(3-methyl-5-(trifluoromethoxy)phenyl)-2H-pyrazolo[4,3-b]pyridin-7-yl)benzoic Acid], the IC50 in experiment [1] is more than 10 µM; in experiment [2], 0.1 to 1 µM; at CaMKK2, less than 0.1 µM.

As to `O=C(O)c1ccc(-c2ccnc3cc(-c4cccc(OCC5CC5)c4)nn23)cc1C1CCCC1` [Example 2.11, 2-Cyclopentyl-4-(2-(3-(cyclopropylmethoxy)phenyl)pyrazolo[1,5-a]pyrimidin-7-yl)benzoic Acid], the IC50 in experiment [1] is more than 10 µM; in experiment [2], 0.1 to 1 µM; on CaMKK2, less than 0.1 µM.

Regarding `O=C(O)c1ccc(-n2ccc3ncc(-c4cccc(Cl)c4)nc32)cc1C1CCCC1` [Example 3, 4-[3-(3-Chlorophenyl)pyrrolo[2,3-b]pyrazin-5-yl]-2-cyclopentyl-benzoic Acid], the IC50 in experiment [1] was more than 10 µM; in experiment [2], 0.1 to 1 µM; at CaMKK2 it was less than 0.1 µM.

In the case of `Cc1cccc(-n2cc3nccc(-c4ccc(C(=O)O)c(C5CCCC5)c4)c3n2)c1` [Example 3.3, 2-Cyclopentyl-4-(2-(m-tolyl)-2H-pyrazolo[4,3-b]pyridin-7-yl)benzoic Acid], the IC50 was more than 10 µM in experiment [1], 0.1 to 1 µM in experiment [2] and less than 0.1 µM at CaMKK2.

As to `O=C(O)c1ccc(-n2ccc3ncc(-c4ccccc4)nc32)cc1NCC1CC1` [Example 6, 2-((Cyclopropylmethyl)amino)-4-(3-phenyl-5H-pyrrolo[2,3-b]pyrazin-5-yl)benzoic Acid], the IC50 in experiment [1] is more than 10 µM; in experiment [2], 0.1 to 1 µM; at CaMKK2, less than 0.1 µM.

For the compound `O=C(O)c1ccc(-c2ccnc3cn(-c4ccc(F)cc4)nc23)cc1C1CCCC1` [Example 3.1, 2-Cyclopentyl-4-[2-(4-fluorophenyl)pyrazolo[4,3-b]pyridin-7-yl]benzoic Acid], the IC50 was more than 10 µM in experiment [1], 0.1 to 1 µM in experiment [2] and less than 0.1 µM at CaMKK2.

In the case of `O=C(O)c1ccc(-c2ccnc3cn(-c4cccc(C5CC5)c4)nc23)cc1C1CCCC1` [Example 3.4, 2-Cyclopentyl-4-(2-(3-cyclopropylphenyl)-2H-pyrazolo[4,3-b]pyridin-7-yl)benzoic Acid], the results for the IC50 (in experiment [1]; in experiment [2]; on CaMKK2) were more than 10 µM, less than 0.1 µM and less than 0.1 µM, respectively.

As to `O=C(O)c1ccc(-n2ccc3ncc(-c4ccccc4)nc32)cc1NC1CCCC1` [Example 7, 2-(Cyclopentylamino)-4-(3-phenyl-5H-pyrrolo[2,3-b]pyrazin-5-yl)benzoic Acid], the IC50 in experiment [1] was more than 10 µM; in experiment [2] it was 1 to 10 µM; at CaMKK2, less than 0.1 µM.

For the compound `Cn1cc2cc(-c3cnc4ccn(-c5ccc(C(=O)O)c(NCC6CC6)c5)c4n3)ccc2n1` [Example 12, 2-(Cyclopropylmethylamino)-4-(3-(2-methyl-2H-indazol-5-yl)-5H-pyrrolo[2,3-b]pyrazin-5-yl)benzoic Acid], the IC50 was more than 10 µM in experiment [1], 0.1 to 1 µM in experiment [2] and less than 0.1 µM on CaMKK2.

`CCNc1cc(-n2ccc3ncc(-c4ccccc4)nc32)ccc1C(=O)O` [Example 5, 2-(Ethylamino)-4-(3-phenylpyrrolo[2,3-b]pyrazin-5-yl)benzoic Acid]: the IC50 is more than 10 µM in experiment [1], 0.1 to 1 µM in experiment [2] and less than 0.1 µM at CaMKK2.

For `O=C(O)c1ccc(-c2c(F)cnc3cn(-c4cccc(C(F)(F)F)c4)nc23)cc1C1CCCC1` [Example 3.9, 2-Cyclopentyl-4-(6-fluoro-2-(3-(trifluoromethyl)phenyl)-2H-pyrazolo[4,3-b]pyridin-7-yl)benzoic Acid], the values for the IC50 (in experiment [1]; in experiment [2]; on CaMKK2) were more than 10 µM, 0.1 to 1 µM and less than 0.1 µM, respectively.

`N#CNC(=O)c1ccc(-n2ccc3ncc(C4CC4)nc32)cc1C1CCCC1` [Example 19, N-Cyano-2-cyclopentyl-4-(3-cyclopropyl-5H-pyrrolo[2,3-b]pyrazin-5-yl)benzamide]: the IC50 in experiment [1] was more than 10 µM; in experiment [2], 1 to 10 µM; on CaMKK2 it was less than 0.1 µM.

For the compound `O=C(O)c1ccc(-c2c(F)cnc3cn(-c4cc(Cl)cc(Cl)c4)nc23)cc1C1CCCC1` [Example 3.16, 2-Cyclopentyl-4-(2-(3,5-dichlorophenyl)-6-fluoro-2H-pyrazolo[4,3-b]pyridin-7-yl)benzoic Acid], the IC50 in experiment [1] was more than 10 µM; in experiment [2], less than 0.1 µM; at CaMKK2 it was less than 0.1 µM.

As to `CCNc1cc(-n2ccc3ncc(-c4ccc5nn(C)cc5c4)nc32)ccc1C(=O)O` [Example 13, 2-(Ethylamino)-4-(3-(2-methyl-2H-indazol-5-yl)-5H-pyrrolo[2,3-b]pyrazin-5-yl)benzoic Acid], the IC50 is more than 10 µM in experiment [1], 0.1 to 1 µM in experiment [2] and less than 0.1 µM at CaMKK2.

On to `CCOc1cccc(-c2cc3nccc(-c4ccc(C(=O)O)c(C5CCCC5)c4)n3n2)c1` [Example 2.10, 2-Cyclopentyl-4-(2-(3-ethoxyphenyl)pyrazolo[1,5-a]pyrimidin-7-yl)benzoic Acid], for which the IC50 is more than 10 µM in experiment [1], 0.1 to 1 µM in experiment [2] and less than 0.1 µM on CaMKK2.

In the case of `O=C(O)c1ccc(-n2ccc3ncc(-c4ccccc4)nc32)cc1C1CCCC1` [Example 1, 2-Cyclopentyl-4-(3-phenylpyrrolo[2,3-b]pyrazin-5-yl)benzoic Acid], the figures for the IC50 (in experiment [1]; in experiment [2]; at CaMKK2) were more than 10 µM, less than 0.1 µM and less than 0.1 µM, respectively.

Consider `O=C(O)c1ccc(-c2ccnc3cn(-c4ccccc4)nc23)cc1C1CCCC1` [Example 3.2, 2-Cyclopentyl-4-(2-phenyl-2H-pyrazolo[4,3-b]pyridin-7-yl)benzoic Acid], for which the IC50 in experiment [1] was more than 10 µM; in experiment [2] it was less than 0.1 µM; at CaMKK2, less than 0.1 µM.

`O=C(NS(=O)(=O)C(F)(F)F)c1ccc(-n2ccc3ncc(C4CC4)nc32)cc1C1CCCC1` [Example 21, 2-Cyclopentyl-4-(3-cyclopropyl-5H-pyrrolo[2,3-b]pyrazin-5-yl)-N-((trifluoromethyl)sulfonyl)benzamide] registered an IC50 at CaMKK2 of 0.1 to 1 µM.

Compound `Cc1cccc(-c2cnc3ccn(-c4ccc(C(=O)O)c(C5CCCC5)c4)c3n2)c1` [Example 4, 2-Cyclopentyl-4-(3-(m-tolyl)-5H-pyrrolo[2,3-b]pyrazin-5-yl)benzoic Acid] had an IC50 on CaMKK2 of less than 0.1 µM.

`Cc1cc(C)cc(-c2cnc3ccn(-c4ccc(C(=O)O)c(CC5CNC5)c4)c3n2)c1` [Example 27, 2-(azetidin-3-ylmethyl)-4-(3-(3,5-dimethylphenyl)-5H-pyrrolo[2,3-b]pyrazin-5-yl) benzoic Acid] showed an IC50 on CaMKK2 of less than 0.1 µM.

For `O=C(O)c1ccc(-c2ccnc3cc(-c4ccc(F)cc4)nn23)cc1C1CCCC1` [Example 2.5, 2-Cyclopentyl-4-(2-(4-fluorophenyl)pyrazolo[1,5-a]pyrimidin-7-yl)benzoic Acid], at CaMKK2, the IC50 was less than 0.1 µM.

As for `COc1cc(-n2cc3ncc(F)c(-c4ccc(C(=O)O)c(C5CCCC5)c4)c3n2)cc(C(F)(F)F)c1` [Example 3.13, 2-Cyclopentyl-4-(6-fluoro-2-(3-methoxy-5-(trifluoromethyl)phenyl)-2H-pyrazolo[4,3-b]pyridin-7-yl)benzoic Acid], the IC50 at CaMKK2 is less than 0.1 µM.

Regarding `CCNc1cc(-n2ccc3ncc(-c4ccc5cn(C)nc5c4)nc32)ccc1C(=O)O` [Example 16, 2-(Ethylamino)-4-(3-(2-methyl-2H-indazol-6-yl)-5H-pyrrolo[2,3-b]pyrazin-5-yl)benzoic Acid], the IC50 at CaMKK2 was less than 0.1 µM.
